Reference: PMC6110851, “An Optimized MicroPET Imaging Method for the Distribution and Synergies of Natural Products” (Frontiers in Pharmacology, 2018)
Like-named read-outs stand apart in the source and are kept apart here.

How the values were obtained:
NF-κB = NF-κB dual luciferase reporter assay in TNF-stimulated HEK 293 T cells; format: cell-based; conditions: after decay of radioactivity, HEK 293T stimulated by TNF-α
Protocol: The separation process was repeated five times for use in the activity tests. […] After 48 h, radioactive elements had decayed, the residues were stored at 4°C for anti-inflammatory activity tests ([Dong et al., 2013]; [Qingxin et al., 2016]).
HEK 293 T cells were cultured in standard Dulbecco’s modified Eagle’s medium (DMEM; Hyclone) supplemented with 10% fetal bovine serum (FBS; Biological Industries). The cells were placed in 96-well plates at 37°C in an air-CO2 environment (95/5% v/v). Cells were grown to 80–90% confluence and incubated for 12 h in DMEM without FBS. Transfection (20 h) was performed according to the manufacturer’s instructions. HEK 293 T cells were pretreated with drugs 1 h prior to TNF-stimulation (5 ng/mL) for 6 h. Dex (10^-5mol/L) was used as a positive control for NF-κB inhibition. The NF-κB activity was assayed using dual luciferase reporter assay system (Promega) according to the manufacturer’s instructions ([Qingxin et al., 2016]). Antiinflammatory activity was calculated as the ratio of firefly luciferase activity to Renilla luciferase activity (internal control).

[1] = MicroPET distribution of [^18F]-GA after PG polysaccharides intervention; format: in vivo, mice; conditions: for tissue uptake at 1 h: po, read-out: %ID/g of [^18F]-GA in the lungs, OA
Protocol: The mice were grouped by weight and housed in cages of the climate control room (25°C), with a photoperiod 12:12-h. During feeding, mice were free to access food and water. Mice were fasted for 24 h before the experiment. The mice were anesthetized with 4% isoflurane while preparing for scanning ([Constantinescu et al., 2013b]; [Cui et al., 2017]). Eighteen healthy male Kunming mice, weighing 20 ± 2 g, were divided into three groups, which were control group, once-administered (OA) group and long-term administration (LA) group. In the OA group, 1 h before the administration of [^18F]-GA, the mice were orally treated with PG polysaccharides. In the LA group, the mice were orally given the PG polysaccharides for 7 days, but not before the administration of [^18F]-GA.
Rice received a tail vein injection (8.67 ± 2.14 MBq/μg) of [^18F]-GA and placed in the scanner bed and mouse-imaging room immediately ([Constantinescu et al., 2013b]; [O’Doherty et al., 2017]). Firstly, 2 h PET scanning was performed using an Inveon-dedicated PET scanner. The average delay between injection and starting of PET scanning was 3.5 min. Rice were maintained stable under 4% isoflurane anesthesia throughout scanning. The PET list-mode data were dynamically classified into 23 3D sinograms of span and three ring difference. After Fourier recombination, the data were reconstructed using a 2D ordered-subset expectation maximization algorithm. Random events were excluded before reconstruction. The response of detector is normalized using a component-based approach. All dynamic images were corrected for radioactive decay automatically. The PET images were reconstructed by a cone beam algorithm into 480 × 480 × 632 image arrays. After the reconstruction, images were spatially transformed to match the PET images ([Constantinescu et al., 2013a],[b]).
The reconstruction of the image was performed using the PMOD software (PMOD Technologies). The 3D volumes of interest (VOIs) were drawn manually of the following organs: brain, heart, liver, lungs, kidneys, cortical bone, and gallbladder. The organs were carefully identified and VOIs were drawn as irregular contours on high-resolution PET images obtained from each mouse ([Constantinescu et al., 2013b]; [Garg et al., 2017]). The size of each VOI was less than the actual size of each organ to minimize the effects of PET on adjacent organ spills. The VOIs drawing was verified by a second operator. The VOIs of cortical bone were generated by first using PET image to depict the entire femur bone ([Constantinescu et al., 2013b]). The VOI was transferred to a dynamic PET image and the mean time-activity curve (TAC) of the decay correction was extracted for each target organ ([Constantinescu et al., 2013b]).

In the case of `CC1(C)[C@@H](O)CC[C@]2(C)[C@H]3C(=O)C=C4[C@@H]5C[C@@](C)(C(=O)NCCCC[18F])CC[C@]5(C)CC[C@@]4(C)[C@]3(C)CC[C@@H]12` [[^18F]-GA, [^18F]-Glycyrrhetinic acid], the “inhibition of NF-κB activity” value (NF-κB; high concentration) is reported as “significant inhibition of NF-κB activity”, the “anti-inflammatory activity (NF-κB reporter)” value (NF-κB; low concentration) is reported as “weak anti-inflammatory activity” and the “inhibition of NF-κB activity” value (NF-κB; medium concentration) is reported as “significant inhibition of NF-κB activity”. For the same compound, the “time from which lung %ID/g of OA group differs significantly” value ([1]; OA vs. Con, Table 2) was 7 min, the “[^18F]-GA concentration of lung, OA group relative to LA group” value ([1]; area under the curve, OA: PG polysaccharides 1 h before, LA: for 7 days) was 2 times and the “[^18F]-GA concentration of lung, OA group relative to control mice” value ([1]; area under the curve, PG polysaccharides orally 1 h before [^18F]-GA) was 2.7 times. The “ranking of organ concentration (area under the curve)” value ([1]; control group, mice) was “concentration of liver was highest, and the lung was lowest”, the tissue uptake at 60 s ([1]; male, Kunming, mouse, lungs, intravenous, mice, control group, Time(s) 60, read-out: %ID/g of [^18F]-GA in the lungs, Con) was 8.86 %ID/g and the tissue uptake at 180 s ([1]; male, Kunming, mouse, lungs, intravenous, mice, control group, Time(s) 180, read-out: %ID/g of [^18F]-GA in the lungs, Con) was 4.36 %ID/g. The tissue uptake at 300 s ([1]; male, Kunming, mouse, lungs, intravenous, mice, control group, Time(s) 300, read-out: %ID/g of [^18F]-GA in the lungs, Con) was 3.29 %ID/g, the tissue uptake at 420 s ([1]; male, Kunming, mouse, lungs, intravenous, mice, control group, Time(s) 420, read-out: %ID/g of [^18F]-GA in the lungs, Con) was 2.78 %ID/g and the tissue uptake at 540 s ([1]; male, Kunming, mouse, lungs, intravenous, mice, control group, Time(s) 540, read-out: %ID/g of [^18F]-GA in the lungs, Con) was 2.42 %ID/g. It also gave a tissue uptake at 780 s ([1]; male, Kunming, mouse, lungs, intravenous, mice, control group, Time(s) 780, read-out: %ID/g of [^18F]-GA in the lungs, Con) of 2.1 %ID/g, a tissue uptake at 900 s ([1]; male, Kunming, mouse, lungs, intravenous, mice, control group, Time(s) 900, read-out: %ID/g of [^18F]-GA in the lungs, Con) of 2.15 %ID/g and a tissue uptake at 1020 s ([1]; male, Kunming, mouse, lungs, intravenous, mice, control group, Time(s) 1020, read-out: %ID/g of [^18F]-GA in the lungs, Con) of 2.09 %ID/g. The tissue uptake at 1140 s ([1]; male, Kunming, mouse, lungs, intravenous, mice, control group, Time(s) 1140, read-out: %ID/g of [^18F]-GA in the lungs, Con) was 1.9 %ID/g, the tissue uptake at 1350 s ([1]; male, Kunming, mouse, lungs, intravenous, mice, control group, Time(s) 1350, read-out: %ID/g of [^18F]-GA in the lungs, Con) was 1.75 %ID/g and the tissue uptake at 1650 s ([1]; male, Kunming, mouse, lungs, intravenous, mice, control group, Time(s) 1650, read-out: %ID/g of [^18F]-GA in the lungs, Con) was 1.66 %ID/g. For the same compound, the tissue uptake at 1950 s ([1]; male, Kunming, mouse, lungs, intravenous, mice, control group, Time(s) 1950, read-out: %ID/g of [^18F]-GA in the lungs, Con) was 1.55 %ID/g, the tissue uptake at 2250 s ([1]; male, Kunming, mouse, lungs, intravenous, mice, control group, Time(s) 2250, read-out: %ID/g of [^18F]-GA in the lungs, Con) was 1.51 %ID/g and the tissue uptake at 2700 s ([1]; male, Kunming, mouse, lungs, intravenous, mice, control group, Time(s) 2700, read-out: %ID/g of [^18F]-GA in the lungs, Con) was 1.34 %ID/g. For the same compound, the tissue uptake at 3300 s ([1]; male, Kunming, mouse, lungs, intravenous, mice, control group, Time(s) 3300, read-out: %ID/g of [^18F]-GA in the lungs, Con) was 1.26 %ID/g, the tissue uptake at 3900 s ([1]; male, Kunming, mouse, lungs, intravenous, mice, control group, Time(s) 3900, read-out: %ID/g of [^18F]-GA in the lungs, Con) was 1.23 %ID/g and the tissue uptake at 4500 s ([1]; male, Kunming, mouse, lungs, intravenous, mice, control group, Time(s) 4500, read-out: %ID/g of [^18F]-GA in the lungs, Con) was 1.05 %ID/g. It also gave a tissue uptake at 5100 s ([1]; male, Kunming, mouse, lungs, intravenous, mice, control group, Time(s) 5100, read-out: %ID/g of [^18F]-GA in the lungs, Con) of 1.04 %ID/g, a tissue uptake at 5700 s ([1]; male, Kunming, mouse, lungs, intravenous, mice, control group, Time(s) 5700, read-out: %ID/g of [^18F]-GA in the lungs, Con) of 1.02 %ID/g and a tissue uptake at 6300 s ([1]; male, Kunming, mouse, lungs, intravenous, mice, control group, Time(s) 6300, read-out: %ID/g of [^18F]-GA in the lungs, Con) of 0.97 %ID/g. It also gave a tissue uptake at 6900 s ([1]; male, Kunming, mouse, lungs, intravenous, mice, control group, Time(s) 6900, read-out: %ID/g of [^18F]-GA in the lungs, Con) of 0.94 %ID/g, a tissue uptake at 1 h ([1]; male, Kunming, mouse, lungs, mice, PG polysaccharides orally 1 h before [^18F]-GA, Time(s) 60) of 8.21 %ID/g and a tissue uptake at 1 h ([1]; male, Kunming, mouse, lungs, mice, PG polysaccharides orally 1 h before [^18F]-GA, Time(s) 180) of 5.95 %ID/g. For the same compound, the tissue uptake at 1 h ([1]; male, Kunming, mouse, lungs, mice, PG polysaccharides orally 1 h before [^18F]-GA, Time(s) 300) was 5.53 %ID/g, the tissue uptake at 1 h ([1]; male, Kunming, mouse, lungs, mice, PG polysaccharides orally 1 h before [^18F]-GA, Time(s) 420) was 5.2 %ID/g and the tissue uptake at 1 h ([1]; male, Kunming, mouse, lungs, mice, PG polysaccharides orally 1 h before [^18F]-GA, Time(s) 540) was 4.85 %ID/g. It also gave a tissue uptake at 1 h ([1]; male, Kunming, mouse, lungs, mice, PG polysaccharides orally 1 h before [^18F]-GA, Time(s) 660) of 4.63 %ID/g, a tissue uptake at 1 h ([1]; male, Kunming, mouse, lungs, mice, PG polysaccharides orally 1 h before [^18F]-GA, Time(s) 780) of 4.54 %ID/g and a tissue uptake at 1 h ([1]; male, Kunming, mouse, lungs, mice, PG polysaccharides orally 1 h before [^18F]-GA, Time(s) 900) of 4.53 %ID/g. For the same compound, the tissue uptake at 1 h ([1]; male, Kunming, mouse, lungs, mice, PG polysaccharides orally 1 h before [^18F]-GA, Time(s) 1020) was 4.35 %ID/g.
